Literature values, collected in US20030008851A1, “Acne treatment including dual-package system” (priority 2001, published 2003).

Experiments:
[1] = not given; remark: listed apart in the source

Row | Structure (SMILES) | solubility in alcohol (in words) | solubility in water (in words) ([1]; water) | volume of alcohol dissolving 1 gram (1 gram) | pH of the solution produced ([1]; 1 gram in about 460 ml of water at room temperature) | volume of water dissolving 1 gram ([1]; 1 gram, water, room temperature) | solubility in water ([1]; water, room temperature)
1 | O=C(OOC(=O)c1ccccc1)c1ccccc1 [Benzoyl peroxide] | sparingly soluble | sparingly soluble |  |  |  | 
2 | O=C(O)c1ccccc1O [Salicylic acid] |  | sparingly soluble | about 2.7 ml | 2.4 | about 460 ml | about 0.2 % by weight
